From ChEMBL document CHEMBL1201862, “PubChem BioAssay data set” (2004)
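All cell lines were grown in 96-well plates and treated with compound for 48 hours. GI50: concentration for 50% inhibition of growth.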 Activity calls are given as the source filed them. Rule as the data show it: active = GI50 up to about 1.1 µM and inactive = higher.

Columns and labels:
Experiment in all cases: growth of human tumour cells (NCI), 48 h
786-0 = tested on: 786-0
A549 = tested on: A549
ACHN = tested on: ACHN
CCRF-CEM = tested on: CCRF-CEM
HCT-15 = tested on: HCT-15
HOP-92 = tested on: HOP-92
Hs-578T = tested on: Hs-578T
KM12 = tested on: KM12
MDA-MB-231 = tested on: MDA-MB-231
MOLT-4 = tested on: MOLT-4
Malme-3M = tested on: Malme-3M
NCI-H522 = tested on: NCI-H522
OVCAR-3 = tested on: OVCAR-3
OVCAR-5 = tested on: OVCAR-5
SNB-19 = tested on: SNB-19
SNB-75 = tested on: SNB-75
SR = tested on: SR
T47D = tested on: T47D
UACC-62 = tested on: UACC-62
TK-10 = tested on: TK-10

| Compound | GI50 (786-0) | GI50 (A549) | GI50 (ACHN) | GI50 (CCRF-CEM) | GI50 (HCT-15) [µM] | GI50 (HOP-92) | GI50 (Hs-578T) | GI50 (KM12) | GI50 (MDA-MB-231) | GI50 (MOLT-4) | GI50 (Malme-3M) | GI50 (NCI-H522) | GI50 (OVCAR-3) | GI50 (OVCAR-5) | GI50 (SNB-19) | GI50 (SNB-75) | GI50 (SR) | GI50 (T47D) | GI50 (UACC-62) | GI50 (TK-10) |
| --- | --- | --- | --- | --- | --- | --- | --- | --- | --- | --- | --- | --- | --- | --- | --- | --- | --- | --- | --- | --- |
| CC(C)Cc1ccc(C(C)CC2=CCC(CN(C)C)C2=O)cc1 (stereo not drawn) | 1.79 µM (inactive) | 18.3 µM (inactive) | 16.7 µM (inactive) | 2.4 µM (inactive) | 2.64 | 2.95 µM (inactive) | 18.3 µM (inactive) | 3.13 µM (inactive) | 10.5 µM (inactive) | 2.34 µM (inactive) | 6.15 µM (inactive) | 4.06 µM (inactive) | 11.2 µM (inactive) | 16.1 µM (inactive) | 15.3 µM (inactive) | 15.8 µM (inactive) | 1.86 µM (inactive) | 1.86 µM (inactive) | 10 µM (inactive) | – |
| COc1ccc(CN(CCc2c[nH]c3ccccc23)Cc2ccc(OC)cc2)cc1 | 3.08 µM (inactive) | 3.63 µM (inactive) | 3.37 µM (inactive) | 6.67 µM (inactive) | 3.44 | 3.29 µM (inactive) | 16.7 µM (inactive) | 2.67 µM (inactive) | 8.65 µM (inactive) | > 21 µM (inactive) | 3.04 µM (inactive) | 2.88 µM (inactive) | 3.23 µM (inactive) | 3.64 µM (inactive) | 5.13 µM (inactive) | 6.25 µM (inactive) | 7.57 µM (inactive) | 1.33 µM (inactive) | 2.14 µM (inactive) | 1.29 µM (inactive) |
| O=C(CCN1CCCCC1)N1CCc2c([nH]c3ccccc23)C1c1cccnc1 (stereo not drawn) | 38.6 µM (inactive) | > 93.3 µM (inactive) | > 85.5 µM (inactive) | 57.4 µM (inactive) | 85.5 | 29.7 µM (inactive) | 66.4 µM (inactive) | > 100 µM (inactive) | 34.1 µM (inactive) | 47.1 µM (inactive) | 20.8 µM (inactive) | 35.3 µM (inactive) | > 100 µM (inactive) | > 73.3 µM (inactive) | > 100 µM (inactive) | 58.3 µM (inactive) | 41.5 µM (inactive) | 64.1 µM (inactive) | 20.7 µM (inactive) | 68.9 µM (inactive) |
| C[C@]12CCC3c4ccc(O)cc4CC[C@H]3C1CC(=O)N(N)C2=O (stereo partly drawn) | > 100 µM (inactive) | > 100 µM (inactive) | > 100 µM (inactive) | > 100 µM (inactive) | – | > 100 µM (inactive) | > 100 µM (inactive) | > 100 µM (inactive) | > 100 µM (inactive) | > 100 µM (inactive) | > 100 µM (inactive) | > 100 µM (inactive) | > 100 µM (inactive) | > 100 µM (inactive) | > 100 µM (inactive) | > 100 µM (inactive) | > 100 µM (inactive) | > 100 µM (inactive) | > 100 µM (inactive) | > 100 µM (inactive) |
| CCCCCCCC(CC(=O)O)OC(=O)CC(CCCCCCC)OC1OC(C)C(O)C(O)C1OC1OC(C)C(O)C(O)C1O (stereo not drawn) | > 100 µM (inactive) | > 100 µM (inactive) | > 100 µM (inactive) | 79.4 µM (inactive) | > 100 | > 100 µM (inactive) | 67.6 µM (inactive) | > 100 µM (inactive) | > 100 µM (inactive) | > 100 µM (inactive) | 43.2 µM (inactive) | > 100 µM (inactive) | > 100 µM (inactive) | > 100 µM (inactive) | > 100 µM (inactive) | > 100 µM (inactive) | > 100 µM (inactive) | > 100 µM (inactive) | > 100 µM (inactive) | – |
| NCCNC(=O)CN(CC(=O)O)C1CCCCC1N(CC(=O)O)CC(=O)O (stereo not drawn) | > 100 µM (inactive) | > 100 µM (inactive) | > 100 µM (inactive) | > 100 µM (inactive) | > 100 | 11.7 µM (inactive) | 56 µM (inactive) | > 100 µM (inactive) | > 100 µM (inactive) | > 100 µM (inactive) | > 100 µM (inactive) | > 100 µM (inactive) | > 100 µM (inactive) | > 100 µM (inactive) | > 100 µM (inactive) | 2.32 µM (inactive) | > 100 µM (inactive) | > 100 µM (inactive) | > 100 µM (inactive) | > 100 µM (inactive) |
| CC(C)C1CNC(=O)C2(/C=N/C(C(C)C)CNC(=O)C3(/C=N/1)CCCO3)CCCO2 (stereo not drawn) | > 10 µM (inactive) | > 10 µM (inactive) | > 10 µM (inactive) | > 10 µM (inactive) | > 10 | > 10 µM (inactive) | > 10 µM (inactive) | > 10 µM (inactive) | > 10 µM (inactive) | > 10 µM (inactive) | > 10 µM (inactive) | > 10 µM (inactive) | > 10 µM (inactive) | – | > 10 µM (inactive) | > 10 µM (inactive) | > 10 µM (inactive) | > 10 µM (inactive) | > 10 µM (inactive) | > 10 µM (inactive) |
| CCN(CC)CCNc1ccc2ncn3c4ccc(O)cc4c(=O)c1c23 | 0.459 µM (active) | 0.0248 µM (active) | 0.0499 µM (active) | 0.0719 µM (active) | 0.214 | 0.434 µM (active) | 3.11 µM (inactive) | 1.21 µM (inactive) | 1.65 µM (inactive) | 0.0146 µM (active) | 1.48 µM (inactive) | 0.458 µM (active) | 3.55 µM (inactive) | 2.37 µM (inactive) | 1.01 µM (active) | 0.652 µM (active) | < 0.01 µM (active) | 12.2 µM (inactive) | 1.25 µM (inactive) | 3.2 µM (inactive) |
| COC(=O)C(CCC1CC(OC)N(C(=O)OCc2ccccc2)C1)/N=C/c1ccccc1 (stereo not drawn) | > 100 µM (inactive) | 83 µM (inactive) | > 100 µM (inactive) | 41.9 µM (inactive) | > 100 | 59.4 µM (inactive) | > 100 µM (inactive) | 94.8 µM (inactive) | 47 µM (inactive) | 30.1 µM (inactive) | – | 30.6 µM (inactive) | 36.1 µM (inactive) | > 100 µM (inactive) | > 100 µM (inactive) | > 100 µM (inactive) | 30.5 µM (inactive) | 40.5 µM (inactive) | 84.1 µM (inactive) | 98.6 µM (inactive) |
| COc1cc2oc(=O)ccc2cc1C(=O)CC(C)C | > 100 µM (inactive) | > 100 µM (inactive) | > 100 µM (inactive) | > 100 µM (inactive) | > 100 | > 100 µM (inactive) | 38.5 µM (inactive) | > 100 µM (inactive) | > 100 µM (inactive) | 57.8 µM (inactive) | – | 23.6 µM (inactive) | > 100 µM (inactive) | > 100 µM (inactive) | 56.1 µM (inactive) | 78.7 µM (inactive) | 62.4 µM (inactive) | > 100 µM (inactive) | > 100 µM (inactive) | > 100 µM (inactive) |
| O=c1[nH]c2ccc(C(F)(F)F)cc2nc1-c1ccccc1 | > 100 µM (inactive) | > 100 µM (inactive) | > 100 µM (inactive) | > 100 µM (inactive) | > 100 | > 100 µM (inactive) | 59.6 µM (inactive) | – | > 100 µM (inactive) | > 100 µM (inactive) | > 100 µM (inactive) | > 100 µM (inactive) | > 100 µM (inactive) | > 100 µM (inactive) | > 100 µM (inactive) | > 100 µM (inactive) | 88.3 µM (inactive) | > 100 µM (inactive) | > 100 µM (inactive) | > 100 µM (inactive) |
